One compound from publication PMC6270263, “Factors Influencing the Antifolate Activity of Synthetic Tea-Derived Catechins” (Molecules, 2013) can be followed below.

The target of data set [1] is T1, bovine serum albumin (BSA) (Bos taurus, UniProt P02769).
T1 construct: purchased Sigma-Aldrich
The data set can be described thus: Competitive site-marker (warfarin, ibuprofen) binding to BSA. The note with it: for Kd: BSA, 25 °C, read-out: Binding constant (KA) (converted). How it is done: Next, the site selective binding of both EGCG and TMCG to BSA was analyzed. The capability of serum albumins to bind to aromatic and heterocyclic compounds is largely dependent on the existence of two major binding regions, namely site-I and site-II [25]. Warfarin and ibuprofen are fluorescence probes whose primary binding sites to BSA are site-I and site-II, respectively.
To identify the binding sites of EGCG and TMCG in BSA, the displacements of warfarin and ibuprofen (known to bind at site I and site II, respectively) were followed fluorometrically. Equimolar solutions of BSA and warfarin (5 × 10^−6 M each) were mixed for 1 h and titrated with EGCG and TMCG in separate experiments. Similar solutions containing equimolar ibuprofen and BSA were prepared and separately titrated with EGCG and TMCG to identify the binding sites of EGCG and TMCG with BSA. Titration was followed fluorometrically using an excitation wavelength of 280 nm.

The subject of data set [2] is SK-MEL-28 melanoma cells. Description: Apoptosis assay (cell death detection ELISA) with or without site markers. The note with it: SK-MEL-28, warfarin 10 µM. Type of data set: cell-based, human. The text has this: Serum is commonly used as a supplement in cell culture media. It supports cell growth and product formation by providing a broad spectrum of macromolecules, attachment factors, nutrients, and hormone and growth factors. The most commonly used animal serum supplement is foetal bovine serum, FBS (alternatively called foetal calf serum—FCS). Because BSA is a major component of FBS, the in vitro activity of catechins on tumour cells might be affected by their interaction with BSA. The effect of albumin binding on the biological activity of polyphenols is unclear. Does the bound ligand have some biological activity or does the polyphenol have to be in the free form to be active? To answer this question and to determine whether BSA-catechin interactions increase or decrease catechin anti-tumour activity, the proapoptotic activity of TMCG on SK-MEL-28 melanoma cells was probed in the presence of warfarin or ibuprofen [Figure 5(b)]. […] Because the binding of catechins to BSA seems to control drug availability, the lower affinity of TMCG and TMECG for serum albumins, with respect to natural tea catechins, might contribute to the high in vivo anti-tumour activity of these methylated synthetic catechins. […]
The human melanoma cell line SK-MEL-28 was obtained from American Type Culture Collection (ATCC, Manassas, VA, USA) and was maintained in Eagles’s Minimum Essential Medium (EMEM) supplemented with 10% (v/v) FBS and antibiotics at 37 °C in a humidified atmosphere containing 7.5% CO2. Cell viability was evaluated using the MTT cell proliferation assay. Cells were evaluated for apoptosis using a cell death detection ELISA (Cell Death Detection ELISAPLUS, Roche Diagnostics, Barcelona, Spain). […] The amount of nucleosomes is photometrically quantified at 405 nm by the peroxidase activity retained in the immunocomplexes. Apoptosis was defined as the specific enrichment of mono- and oligonucleosomes in the cytoplasm and was calculated by dividing the absorbance of treated samples with the absorbance of untreated samples after correcting for the number of cells. […]

The target of data set [3] is T1, bovine serum albumin (BSA). The data set can be described thus: BSA binding by fluorescence quenching. The source says: Upon progressive additions of various concentrations of EGCG and TMCG to BSA, the emission intensity decreases, as shown in Figure 4(a). The quenching of the fluorescence intensity of BSA implies that the catechins bind at close proximity to the tryptophan and tyrosine residues and that the molecular arrangement of BSA is affected by the interactions. […] The binding constants (KA) for the BSA-EGCG and BSA-TMCG complexes are 1.54 × 10^7 M^−1 and 1.9 × 10^5 M^−1, respectively (Table 4), and their plots are shown in Figure 4(b). […] In light of these findings, it can be reasoned that the binding affinity to BSA is higher for the galloylated catechin than for the methylated one, which emphasises that the three phenolic groups can enhance hydrogen bonding between BSA and EGCG [25].
Fluorescence measurements were made on an automatic scanning Perkin-Elmer LS50B spectrofluorometer with 1.0 cm light path cells equipped with a 150 W xenon (XBO) light source. In all experiments, the fluorescence of BSA (5 × 10^−6 M) in 50 mM phosphate buffer of pH 7.5 was followed by excitation at 280 nm. The binding affinities of EGCG and TMCG with BSA in terms of binding constants were determined using the following equation [25]: log (F0−F)/F = log KA + n log [Q](1) where KA is the binding constant, n is the number of binding sites, F0 is the fluorescence intensity of free BSA and F is the consequent fluorescence upon the addition of catechins (Q). A plot of log (F0-F)/F against log [Q] was used to determine the values of KA and n from the intercept and the slope, respectively.

T1 sequence (P02769 25-607): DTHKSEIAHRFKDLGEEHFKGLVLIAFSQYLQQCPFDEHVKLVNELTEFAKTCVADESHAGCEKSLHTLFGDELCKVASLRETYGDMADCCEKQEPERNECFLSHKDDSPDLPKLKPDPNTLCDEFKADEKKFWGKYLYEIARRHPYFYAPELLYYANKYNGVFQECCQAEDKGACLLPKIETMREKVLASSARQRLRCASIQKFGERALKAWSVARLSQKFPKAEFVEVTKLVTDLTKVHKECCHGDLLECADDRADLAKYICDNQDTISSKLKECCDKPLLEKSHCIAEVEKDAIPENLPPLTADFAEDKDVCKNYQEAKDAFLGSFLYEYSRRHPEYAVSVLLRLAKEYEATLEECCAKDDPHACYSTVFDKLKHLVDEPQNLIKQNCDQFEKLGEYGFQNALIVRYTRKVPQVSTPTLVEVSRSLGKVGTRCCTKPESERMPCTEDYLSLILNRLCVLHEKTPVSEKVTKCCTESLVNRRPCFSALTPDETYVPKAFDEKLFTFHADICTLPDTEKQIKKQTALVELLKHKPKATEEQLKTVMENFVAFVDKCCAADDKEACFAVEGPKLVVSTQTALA

Consider `COc1cc(C(=O)O[C@H]2Cc3c(O)cc(O)cc3O[C@@H]2c2ccc(O)c(O)c2)cc(OC)c1OC` [TMCG], for which the Kd was 5.26 µM in data set [1] (site marker: Blank); 9.09 µM in data set [1] (site marker: Ibuprofen); 20 µM in data set [1] (site marker: Warfarin); 5.26 µM in data set [3] (25 °C, pH 7.5, no site marker, read-out: Binding constant (KA) for BSA-catechin complex (converted)). Moreover, the “Site selective binding to BSA” value in data set [1] (competition with warfarin (site-I) and ibuprofen (site-II)) is “higher specificity for site-I”. In addition, in data set [2], the “Proapoptotic activity of TMCG in the presence of warfarin” value was “significantly increased”. The “Number of binding sites n” value in data set [3] (catechin-BSA complex, double logarithmic plot) is on record as “approximately 1”.
